Measured values from US8183239B2, “Substituted piperazines and piperidines as modulators of the neuropeptide Y2 receptor” (Janssen Pharmaceutica NV, priority 2005, dated 2012).

Each molecule was assayed against T1, Y2 receptors (Homo sapiens, UniProt P49146) (assay: Radioligand binding assay ([125I]PYY, KAN-Ts cell membranes)). Settings: Table 1, [125I]PYY 80 pM, average of results, read-out: IC50.
T1 construct: endogenous in cells; host or cells: KAN-Ts cells (membranes)
T1 sequence (P49146 1-381): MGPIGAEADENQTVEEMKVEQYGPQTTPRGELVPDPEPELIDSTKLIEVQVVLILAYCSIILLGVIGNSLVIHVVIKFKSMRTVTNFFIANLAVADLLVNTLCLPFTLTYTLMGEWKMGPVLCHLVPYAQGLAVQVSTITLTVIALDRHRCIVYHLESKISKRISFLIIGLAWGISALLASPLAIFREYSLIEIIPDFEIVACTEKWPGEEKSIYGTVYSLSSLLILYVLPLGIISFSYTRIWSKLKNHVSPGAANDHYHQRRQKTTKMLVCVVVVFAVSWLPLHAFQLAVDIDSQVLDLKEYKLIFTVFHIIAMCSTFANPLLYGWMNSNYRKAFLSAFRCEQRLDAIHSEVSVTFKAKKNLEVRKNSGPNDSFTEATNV
Summary of the method: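 Membranes from KAN-Ts cells endogenously expressing Y2 incubated 1 h at rt with 80 pM [^125I]PYY ± test compound in HEPES buffer with NaCl, Ca^2+ and Mg^2+. Bound radioactivity collected by filtration; specific binding defined with […]. IC50 from sigmoidal fit, averaged over 3-8 duplicate experiments.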

| IC50 [nM] | SMILES |
| --- | --- |
| 142 | CCC(CC)C(=O)Nc1ccc(N2CCN(C(C(=O)N(CC)CC)c3cc(F)ccc3Br)CC2)c(F)c1 (stereo not drawn) [Example 153, N-(4-{4-[(2-Bromo-5-fluoro-phenyl)-diethylcarbamoyl-methyl]-piperazin-1-yl}-3-fluoro-phenyl)-2-ethyl-butyramide] |
| 220 | CCN(CC)C(=O)C(c1ccccc1)C1CCN(c2ccc(NC(=O)Cc3cc(C)ccc3C)cc2F)CC1 (stereo not drawn) [Example 154, 2-(1-{4-[2-(2,5-Dimethyl-phenyl)-acetylamino]-2-fluoro-phenyl}-piperidin-4-yl)-N,N-diethyl-2-phenyl-acetamide] |
| 230 | CCN(CC)C(=O)C(c1ccccc1)C1CCN(c2ccc(NC(=O)Cc3c(F)cccc3F)cc2F)CC1 (stereo not drawn) [Example 156, 2-(1-{4-[2-(2,6-Difluoro-phenyl)-acetylamino]-2-fluoro-phenyl}-piperidin-4-yl)-N,N-diethyl-2-phenyl-acetamide] |
| 235 | CCN(CC)C(=O)C(c1ccccc1)C1CCN(c2ccc(NC(=O)c3cc(C)ccc3C)cc2F)CC1 (stereo not drawn) [Example 157, N-{4-[4-(Diethylcarbamoyl-phenyl-methyl)-piperidin-1-yl]-3-fluoro-phenyl}-2,5-dimethyl-benzamide] |
| 240 | CCC(CC)C(=O)Nc1ccc(N2CCN(C(C(=O)N3CCC(F)(F)CC3)c3ccc(F)cc3)CC2)c(F)c1 (stereo not drawn) [Example 158, N-(4-{4-[2-(4,4-Difluoro-piperidin-1-yl)-1-(4-fluoro-phenyl)-2-oxo-ethyl]-piperazin-1-yl}-3-fluoro-phenyl)-2-ethyl-butyramide] |
| 250 | CCNC(=O)C(c1cccc(F)c1)N1CCN(c2ccc(NC(=O)C(CC)CC)cc2F)CC1 (stereo not drawn) [Example 159, 2-Ethyl-N-(4-{4-[ethylcarbamoyl-(3-fluoro-phenyl)-methyl]-piperazin-1-yl}-3-fluoro-phenyl)-butyramide] |
| 260 | CCN(CC)C(=O)C(c1ccccc1)C1CCN(c2ccc(NC(=O)c3ccccc3N)cc2F)CC1 (stereo not drawn) [Example 160, 2-Amino-N-{4-[4-(diethylcarbamoyl-phenyl-methyl)-piperidin-1-yl]-3-fluoro-phenyl}-benzamide] |
| 300 | CCN(CC)C(=O)C(c1ccccc1)N1CCN(c2ccc(NC(=O)Cc3ccccc3OC)cc2F)CC1 (stereo not drawn) [Example 162, N,N-Diethyl-2-(4-{2-fluoro-4-[2-(2-methoxy-phenyl)-acetylamino]-phenyl}-piperazin-1-yl)-2-phenyl-acetamide] |
| 300 | CCN(CC)C(=O)C(c1ccccc1)C1CCN(c2ccc(NC(=O)c3cnoc3C)cc2F)CC1 (stereo not drawn) [Example 163, 5-Methyl-isoxazole-4-carboxylic acid {4-[4-(diethylcarbamoyl-phenyl-methyl)-piperidin-1-yl]-3-fluoro-phenyl}-amide] |

Second part, the molecule before the results:

| SMILES | IC50 [nM] |
| --- | --- |
| CCN(CC)C(=O)C(c1ccccc1)C1CCN(c2ccc(NC(=O)c3cccnc3SC)cc2F)CC1 (stereo not drawn) [Example 141, N-{4-[4-(Diethylcarbamoyl-phenyl-methyl)-piperidin-1-yl]-3-fluoro-phenyl}-2-methylsulfanyl-nicotinamide] | 80 |
| CCNC(=O)C(c1ccccc1)C1CCN(c2c(F)cc(NC(=O)C(CC)CC)cc2F)CC1 (stereo not drawn) [Example 142, 2-Ethyl-N-{4-[4-(ethylcarbamoyl-phenyl-methyl)-piperidin-1-yl]-3,5-difluoro-phenyl}-butyramide] | 75 |
| CCN(CC)C(=O)C(c1ccccc1)N1CCN(c2ccc(NC(=O)C3CCCC3)cc2F)CC1 (stereo not drawn) [Example 143, Cyclopentanecarboxylic acid {4-[4-(diethylcarbamoyl-phenyl-methyl)-piperazin-1-yl]-3-fluoro-phenyl}-amide] | 80 |
| CCN(CC)C(=O)C(c1ccccc1)C1CCN(c2ccc(NC(=O)c3ccsc3C)cc2F)CC1 (stereo not drawn) [Example 144, 2-Methyl-thiophene-3-carboxylic acid {4-[4-(diethylcarbamoyl-phenyl-methyl)-piperidin-1-yl]-3-fluoro-phenyl}-amide] | 100 |
| CCN(CC)C(=O)C(c1ccccc1)C1CCN(c2ccc(NC(=O)c3cccn3C)cc2F)CC1 (stereo not drawn) [Example 145, 1-Methyl-1H-pyrrole-2-carboxylic acid {4-[4-(diethylcarbamoyl-phenyl-methyl)-piperidin-1-yl]-3-fluoro-phenyl}-amide] | 100 |
| CCC(CC)C(=O)Nc1ccc(N2CCN(C(C(=O)OC)c3cc(F)cc(F)c3)CC2)c(F)c1 (stereo not drawn) [Example 146, (3,5-Difluoro-phenyl)-{4-[4-(2-ethyl-butyrylamino)-2-fluoro-phenyl]-piperazin-1-yl}-acetic acid methyl ester] | 115 |
| CCNC(=O)C(c1ccccc1)C1CCN(c2ccc(NC(=O)C3(C)CCCCC3)cc2C#N)CC1 (stereo not drawn) [Example 147, 1-Methyl-cyclohexanecarboxylic acid {3-cyano-4-[4-(ethylcarbamoyl-phenyl-methyl)-piperidin-1-yl]-phenyl}-amide] | 100 |
| CCNC(=O)C(c1ccccc1)C1CCN(c2ccc(NC(=O)[C@@H]3CCOC3)cc2C#N)CC1 (stereo partly drawn) [Example 148, (R)-Tetrahydro-furan-3-carboxylic acid {3-cyano-4-[4-(ethylcarbamoyl-phenyl-methyl)-piperidin-1-yl]-phenyl}-amide] | 120 |
| CCN(CC)C(=O)C(c1ccccc1)C1CCN(c2ccc(NC(=O)c3ccccc3SC)cc2F)CC1 (stereo not drawn) [Example 149, N-{4-[4-(Diethylcarbamoyl-phenyl-methyl)-piperidin-1-yl]-3-fluoro-phenyl}-2-methylsulfanyl-benzamide] | 110 |
| O=C(Nc1ccc(N2CCN(C(C(=O)N3CCC(F)(F)C3)c3ccccc3)CC2)c(F)c1)[C@H]1CCOC1 (stereo partly drawn) [Example 151, (S)-Tetrahydro-furan-3-carboxylic acid (4-{4-[2-(3,3-difluoro-pyrrolidin-1-yl)-2-oxo-1-phenyl-ethyl]-piperazin-1-yl}-3-fluoro-phenyl)-amide] | 140 |
| CCN(CC)C(=O)C(c1ccccc1)N1CCN(c2ccc(NC(=O)C3C(C)(C)C3(C)C)cc2F)CC1 (stereo not drawn) [Example 152, 2,2,3,3-Tetramethyl-cyclopropanecarboxylic acid {4-[4-(diethylcarbamoyl-phenyl-methyl)-piperazin-1-yl]-3-fluoro-phenyl}-amide] | 170 |
| CCC(CC)C(=O)Nc1ccc(N2CCN(C(C(=O)N(CC)CC)c3ccc(F)cc3)CC2)c(F)c1 (stereo not drawn) [Example 155, N-(4-{4-[Diethylcarbamoyl-(4-fluoro-phenyl)-methyl]-piperazin-1-yl}-3-fluoro-phenyl)-2-ethyl-butyramide] | 200 |
| CCN(CC)C(=O)C(c1ccccc1)N1CCN(c2ccc(NC(=O)CC3CC3)cc2F)CC1 (stereo not drawn) [Example 161, 2-{4-[4-(2-Cyclopropyl-acetylamino)-2-fluoro-phenyl]-piperazin-1-yl}-N,N-diethyl-2-phenyl-acetamide] | 300 |

Same assay, conditions: Table 2, [125I]PYY 80 pM, average of results, read-out: IC50

| IC50 [nM] | SMILES |
| --- | --- |
| 1100 | CCCS(=O)(=O)Nc1ccc(N2CCN(C(C(=O)N(CC)CC)c3ccccc3)CC2)c(F)c1 (stereo not drawn) [Example 165, N,N-Diethyl-2-{4-[2-fluoro-4-(propane-1-sulfonylamino)-phenyl]-piperazin-1-yl}-2-phenyl-acetamide] |
| 560 | CCCS(=O)(=O)N(c1ccc(N2CCN(C(C(=O)N(CC)CC)c3ccccc3)CC2)c(F)c1)S(=O)(=O)CCC (stereo not drawn) [Example 166, N-{4-[4-(Diethylcarbamoyl-phenyl-methyl)-piperazin-1-yl]-3-fluoro-phenyl}-N-dipropanesulfonanilide] |
